{"source": "patent US20060030608A1", "about": "“Anti aromatase compounds pharmaceutical compositions and uses thereof” (Boehringer Ingelheim Pharmaceuticals, Inc., priority 2004, published 2006)"}
{"biological_target": "T1, recombinant human aromatase (CYP19) (Homo sapiens, UniProt P11511)", "T1 construct": "purchased GENTEST 456260; host or cells: baculovirus/insect cells", "T1 sequence (P11511 1-503)": "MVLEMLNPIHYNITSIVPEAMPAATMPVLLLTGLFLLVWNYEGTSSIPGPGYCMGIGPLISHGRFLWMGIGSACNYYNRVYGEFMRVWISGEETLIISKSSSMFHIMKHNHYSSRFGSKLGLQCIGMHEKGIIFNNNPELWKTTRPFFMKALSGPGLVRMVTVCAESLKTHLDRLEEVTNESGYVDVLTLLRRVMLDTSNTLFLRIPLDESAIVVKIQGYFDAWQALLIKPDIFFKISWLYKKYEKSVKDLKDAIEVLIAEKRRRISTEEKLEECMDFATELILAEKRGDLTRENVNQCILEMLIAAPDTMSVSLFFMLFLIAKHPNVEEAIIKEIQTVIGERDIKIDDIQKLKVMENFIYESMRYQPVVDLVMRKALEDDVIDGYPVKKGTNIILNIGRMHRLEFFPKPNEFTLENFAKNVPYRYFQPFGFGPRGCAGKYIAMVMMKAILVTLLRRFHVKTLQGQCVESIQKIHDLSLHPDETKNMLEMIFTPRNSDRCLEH", "test": "aromatase (CYP19) inhibition assay, fluorometric substrate dibenzylfluorescein (DBF)", "format": "biochemical", "conditions": "recombinant human aromatase (baculovirus/insect cell expressed), test compounds 2×10^−5 to 10^−9 M, 37° C. for 30 minutes", "protocol": "Compounds of the invention were evaluated for inhibiting aromatase enzyme using the following aromatase (CYP19) inhibition assay which detects aromatase inhibitors utilizing recombinant human aromatase (baculovirus/insect cell expressed) and the fluorometric substrate dibenzylfluorescein (DBF). Aromatase will metabolize DBF to fluorescein which will give the fluorescent signal. The assay is conducted in 96-well black, Falcon plate (BD Biosciences, Cat. No. 353241) in the total volume of 100 μL per well. 40 μL of the Cofactor/Dilution buffer (1) is added to the plate followed by 10 μL of serially diluted test compounds in duplicates for final concentration of 2×10^−5 to 10^−9 M, or 10 μL of phosphate buffer for positive and background control wells. After 10 minutes of preincubation at 37° C., the reaction is initiated by adding 50 μL of prewarmed Enzyme/Substrate Mix (2) to the test compound wells, and positive control wells (maximum activity of CYP19, which represents 100%). The plate is incubated at 37° C. for 30 minutes. To stop the reaction, 37.5 μL of 2 N NaOH is added to all wells. For background controls, 50 μL of Enzyme/Substrate Mix (2) are added into background control wells. The plate is left at 37° C. incubator for 2 hours to develop adequate signal to background ratio. Fluorescence per well is measured in the fluorescent plate reader. The metabolite concentration is measured using excitation wavelength of 485 nm and emission wavelength of 538 nm. Inhibition of aromatase by test compounds is expressed in percentage relative to positive controls. IC50 values for the test compounds are derived from non-liner curve fitting. • (1) Cofactor/Dilution buffer: 50 mM phosphate buffer, pH=7.4; 1× NADPH regenerating system A (20× stock, GENTEST, Cat. No. 451220); 1× NAPDH regenerating system B (100× stock, GENTEST, Cat. No. 451200) and 0.2 mg/mL control protein (Insect Cell Control Supersomes, GENTEST, Cat. No. 456200) • (2) Enzyme/Substrate Mix: 50 mM phosphate buffer, pH=7.4, 0.02 nmole/mL human aromatase protein (Human CYP19+P450 Reductase Supersomes, GENTEST, Cat. No. 456260); 0.4 μM dibenzylfluorescein (DBF, GENTEST, Cat. No. 451750, prepared at 2 mM concentration in acetonitrile); 0.5 mg/mL control protein (Insect Cell Control Supersomes, GENTEST, Cat. No. 456200)."}
{"smiles": "CC(C)(CC(O)(Cc1cc2ccncc2[nH]1)C(F)(F)F)c1cccc(F)c1", "note": "(centres unmarked) [1,1,1-Trifluoro-4-(3-fluorophenyl)-4-methyl-2-(1H-pyrrolo[2,3-c]pyridin-2-ylmethyl)pentan-2-ol]", "aromatase inhibition": "showed aromatase inhibition"}
{"smiles": "CC(C)(CC(O)(Cc1cc2cnccc2[nH]1)C(F)(F)F)c1cccc(F)c1", "note": "(centres unmarked) [1,1,1-Trifluoro-4-(3-fluorophenyl)-4-methyl-2-(1H-pyrrolo[3,2-c]pyridin-2-ylmethyl)pentan-2-ol]", "aromatase inhibition": "showed aromatase inhibition"}
{"smiles": "COc1cc(F)ccc1C(C)(C)CC(O)(Cc1cc2ccncc2[nH]1)C(F)(F)F", "note": "(centres unmarked) [1,1,1-Trifluoro-4-(4-fluoro-2-methoxyphenyl)-4-methyl-2-(1H-pyrrolo[2,3-c]pyridin-2-ylmethyl)pentan-2-ol]", "aromatase inhibition": "showed aromatase inhibition"}
{"smiles": "CC(C)(CC(O)(Cc1cc2cnccc2[nH]1)C(F)(F)F)c1ccc(F)cc1", "note": "(centres unmarked) [1,1,1-Trifluoro-4-(4-fluorophenyl)-4-methyl-2-(1H-pyrrolo [3,2-c]pyridin-2-ylmethyl)pentan-2-ol]", "aromatase inhibition": "showed aromatase inhibition"}
{"smiles": "CC(C)(CC(O)(Cc1cc2ccncc2[nH]1)C(F)(F)F)c1ccc(F)cc1", "note": "(centres unmarked) [1,1,1-Trifluoro-4-(4-fluorophenyl)-4-methyl-2-(1H-pyrrolo[2,3-c]pyridin-2-ylmethyl)pentan-2-ol]", "aromatase inhibition": "showed aromatase inhibition"}
{"smiles": "COc1ccc(F)cc1C(C)(C)CC(O)(Cc1cc2ccncc2[nH]1)C(F)(F)F", "note": "(centres unmarked) [1,1,1-Trifluoro-4-(5-fluoro-2-methoxyphenyl)-4-methyl-2-(1H-pyrrolo[2,3-c]pyridin-2-ylmethyl)pentan-2-ol]", "aromatase inhibition": "showed aromatase inhibition"}
{"smiles": "COc1ccc(F)cc1C(C)(C)CC(O)(Cc1cc2ncncc2[nH]1)C(F)(F)F", "note": "(centres unmarked) [1,1,1-Trifluoro-4-(5-fluoro-2-methoxyphenyl)-4-methyl-2-(5H-pyrrolo[3,2-d]pyrimidin-6-ylmethyl)pentan-2-ol]", "aromatase inhibition": "showed aromatase inhibition"}
{"smiles": "COc1ccc(F)cc1C(C)(C)CC(O)(Cc1cc2cncnc2[nH]1)C(F)(F)F", "note": "(centres unmarked) [1,1,1-Trifluoro-4-(5-fluoro-2-methoxyphenyl)-4-methyl-2-(7H-pyrrolo[2,3-d]pyrimidin-6-ylmethyl)pentan-2-ol]", "aromatase inhibition": "showed aromatase inhibition"}
{"smiles": "COc1ccc(F)cc1C(C)(C)CC(O)(Cc1cc2ccncc2s1)C(F)(F)F", "note": "(centres unmarked) [1,1,1-Trifluoro-4-(5-fluoro-2-methoxyphenyl)-4-methyl-2-thieno[2,3-c]pyridin-2-ylmethylpentan-2-ol]", "aromatase inhibition": "showed aromatase inhibition"}
{"smiles": "Cc1ccc(F)cc1C(C)(C)CC(O)(Cc1cc2ncncc2[nH]1)C(F)(F)F", "note": "(centres unmarked) [1,1,1-Trifluoro-4-(5-fluoro-2-methylphenyl)-4-methyl-2-(5H-pyrrolo[3,2-d]pyrimidin-6-ylmethyl)pentan-2-ol]", "aromatase inhibition": "showed aromatase inhibition"}
{"smiles": "Cc1cc2c(c(C(C)(C)CC(O)(Cc3cc4ccncc4[nH]3)C(F)(F)F)c1)OCC2", "note": "(centres unmarked) [1,1,1-Trifluoro-4-methyl-4-(5-methyl-2,3-dihydrobenzofuran-7-yl)-2-(1H-pyrrolo[2,3-c]pyridin-2-ylmethyl)pentan-2-ol]", "aromatase inhibition": "showed aromatase inhibition"}
{"smiles": "CC(C)(CC(O)(Cc1cc2cnccc2[nH]1)C(F)(F)F)c1ccccc1", "note": "(centres unmarked) [1,1,1-Trifluoro-4-methyl-4-phenyl-2-(1H-pyrrolo [3,2-c]pyridin-2-ylmethyl)pentan-2-ol]", "aromatase inhibition": "showed aromatase inhibition"}
{"smiles": "CC(C)(CC(O)(Cc1cc2ccncc2[nH]1)C(F)(F)F)c1ccccc1", "note": "(centres unmarked) [1,1,1-Trifluoro-4-methyl-4-phenyl-2-(1H-pyrrolo[2,3-c]pyridin-2-ylmethyl)pentan-2-ol]", "aromatase inhibition": "showed aromatase inhibition"}
{"smiles": "COc1ccc(F)cc1C(C)(C)CC(O)(Cc1cc2cnccc2[nH]1)C(F)F", "note": "(centres unmarked) [1,1-Difluoro-4-(5-fluoro-2-methoxyphenyl)-4-methyl-2-(1H-pyrrolo[3,2-c]pyridin-2-ylmethyl)pentan-2-ol]", "aromatase inhibition": "showed aromatase inhibition"}
